# Results as given in ChEMBL document CHEMBL5532652, “Design and synthesis of pterostilbene derivatives bearing triazole moiety that might treat DSS-induced colitis in mice through modulation of NF-κB/MAPK signaling pathways” (Eur J Med Chem, 2024).
# The source made the active and inactive calls. The rule behind the calls is not given here.
# Legend:
# RAW264.7 [1] = assay: Anti-inflammatory activity in LPS-stimulated mouse RAW264.7 cells assessed as inhibition of ERK phosphorylation preincubated with compound for 1 hr followed by LPS stimulation and measured after 30 mins by Western blot analysis; assay type: functional, cell-based; conditions: dose 0.5-2 µM, time 1.5 hrs
# RAW264.7 [2] = assay: Anti-inflammatory activity in LPS-stimulated mouse RAW264.7 cells assessed as inhibition of IkappaB phosphorylation at 0.5 to 2 uM preincubated with compound for 1 hr followed by LPS stimulation and measured after 30 mins by Western blot analysis; assay type: functional, cell-based; conditions: dose 0.5-2 µM, time 1.5 hrs
# RAW264.7 [3] = assay: Anti-inflammatory activity in mouse RAW264.7 cells assessed as inhibition of LPS-induced NO production incubated pretreated with compound for 1 hr followed by LPS-induction and measured after 24 hrs by Griess reagent based assay; assay type: functional, cell-based
# [4] = Acute toxicity in female C57BL/6 mouse assessed as hyperactivity at 1000 to 2000 mg/kg, po measured for 14 days; assay type: organism-based; conditions: in vivo, 336 h, dose 1000-2000 mg/kg, time 14 day
# RAW264.7 [5] = assay: Anti-inflammatory activity in LPS-stimulated mouse RAW264.7 cells assessed as inhibition of JNK phosphorylation preincubated with compound for 1 hr followed by LPS stimulation and measured after 30 mins by Western blot analysis; assay type: functional, cell-based; conditions: dose 0.5-2 µM, time 1.5 hrs
# RAW264.7 [6] = assay: Anti-inflammatory activity against LPS-stimulated mouse RAW264.7 cells assessed as downregulation of LPS-induced iNOS expression at 0.5 to 2 uM preincubated with compound for 1 hr followed by LPS stimulation and measured after 24 hrs by Western blot analysis; assay type: functional, cell-based; conditions: dose 0.5-2 µM, time 25.0 hrs
# Mus musculus [7] = assay: Anti-inflammatory activity against DSS-induced acute colitis C57BL/6J mouse model assessed as decrease in colon length at 10 to 20 mg/kg, po measured for 7 days; assay type: functional, organism-based; conditions: dose 10-20 mg/kg, time 7.0 day
# [8] = Toxicity in C57BL/6 mouse assessed as body weight loss at 20 mg/kg, po measured for 7 days; assay type: organism-based; conditions: in vivo, 168 h, time 7 day
# RAW264.7 [9] = assay: Anti-inflammatory activity against LPS-stimulated mouse RAW264.7 cells assessed as downregulation of LPS-induced COX-2 expression at 0.5 to 2 uM preincubated with compound for 1 hr followed by LPS stimulation and measured after 24 hrs by Western blot analysis; assay type: functional, cell-based; conditions: dose 0.5-2 µM, time 25.0 hrs
# RAW264.7 [10] = assay: Anti-inflammatory activity in LPS-stimulated mouse RAW264.7 cells assessed as reduction in ERK level at 0.5 to 2 uM preincubated with compound for 1 hr followed by LPS stimulation and measured after 30 mins by Western blot analysis; assay type: functional, cell-based; conditions: dose 0.5-2 µM, time 1.5 hrs
# [11] = Acute toxicity in female C57BL/6 mouse assessed as lethargy at 1000 to 2000 mg/kg, po measured for 14 days; assay type: organism-based; conditions: in vivo, 336 h, dose 1000-2000 mg/kg, time 14 day
# [12] = Acute toxicity in female C57BL/6 mouse assessed as effect on body weight gain at 1000 to 2000 mg/kg, po measured for 14 days; assay type: organism-based; conditions: in vivo, 336 h, dose 1000-2000 mg/kg, time 14 day
# [13] = Acute toxicity in C57BL/6 mouse assessed as liver damage at 1000 mg/kg, po measured for 14 days; assay type: organism-based; conditions: in vivo, 336 h, time 14 day
# RAW264.7 [14] = assay: Anti-inflammatory activity in LPS-stimulated mouse RAW264.7 cells assessed as reduction in JNK level at 0.5 to 2 uM preincubated with compound for 1 hr followed by LPS stimulation and measured after 30 mins by Western blot analysis; assay type: functional, cell-based; conditions: dose 0.5-2 µM, time 1.5 hrs
# [15] = Cytotoxicity against mouse RAW264.7 cells assessed as reduction in cell viability at 20 uM incubated for 24 hrs in presence of LPS by MTT assay; assay type: toxicity, cell-based
# Mus musculus [16] = assay: Anti-inflammatory activity against DSS-induced acute colitis C57BL/6J mouse model assessed as reduction in TNF-alpha level in colon at 10 to 20 mg/kg, po measured for 7 days by ELISA analysis; assay type: functional, organism-based; conditions: dose 10-20 mg/kg, time 7.0 day
# [17] = Acute toxicity in male C57BL/6 mouse assessed as lethargy at 1000 to 2000 mg/kg, po measured for 14 days; assay type: organism-based; conditions: in vivo, 336 h, dose 1000-2000 mg/kg, time 14 day
# [18] = Toxicity in C57BL/6 mouse assessed as reduction in disease index at 20 mg/kg, po measured for 7 days; assay type: organism-based; conditions: in vivo, 168 h, time 7 day
# [19] = Acute toxicity in female C57BL/6 mouse assessed as effect on fur laxity at 1000 to 2000 mg/kg, po measured for 14 days; assay type: organism-based; conditions: in vivo, 336 h, dose 1000-2000 mg/kg, time 14 day
# Mus musculus [20] = assay: Anti-inflammatory activity against DSS-induced acute colitis C57BL/6J mouse model assessed as reduction in edema at 10 to 20 mg/kg, po measured for 7 days; assay type: functional, organism-based; conditions: dose 10-20 mg/kg, time 7.0 day
# [21] = Acute toxicity in male C57BL/6 mouse assessed as effect on body weight gain at 1000 to 2000 mg/kg, po measured for 14 days; assay type: organism-based; conditions: in vivo, 336 h, dose 1000-2000 mg/kg, time 14 day
# RAW264.7 [22] = assay: Anti-inflammatory activity against LPS-stimulated mouse RAW264.7 cells assessed as reduction in LPS-induced iNOS level preincubated with compound for 1 hr followed by LPS stimulation and measured after 24 hrs by Western blot analysis; assay type: functional, cell-based; conditions: dose 0.5-2 µM, time 25.0 hrs
# [23] = Acute toxicity in C57BL/6 mouse assessed as kidney damage at 1000 mg/kg, po measured for 14 days; assay type: organism-based; conditions: in vivo, 336 h, time 14 day
# [24] = Acute toxicity in male C57BL/6 mouse assessed as effect on body weight loss at 1000 to 2000 mg/kg, po measured for 14 days; assay type: organism-based; conditions: in vivo, 336 h, dose 1000-2000 mg/kg, time 14 day
# Mus musculus [25] = assay: Anti-inflammatory activity against DSS-induced acute colitis C57BL/6J mouse model assessed as reduction in IL-1beta level in colon at 10 to 20 mg/kg, po measured for 7 days by ELISA analysis; assay type: functional, organism-based; conditions: dose 10-20 mg/kg, time 7.0 day
# Mus musculus [26] = assay: Anti-inflammatory activity against DSS-induced acute colitis C57BL/6J mouse model assessed as reduction in MPO level in colon at 10 to 20 mg/kg, po measured for 7 days; assay type: functional, organism-based; conditions: dose 10-20 mg/kg, time 7.0 day
# [27] = Acute toxicity in male C57BL/6 mouse assessed as effect on fur laxity at 1000 to 2000 mg/kg, po measured for 14 days; assay type: organism-based; conditions: in vivo, 336 h, dose 1000-2000 mg/kg, time 14 day
# [28] = Acute toxicity in C57BL/6 mouse assessed as heart damage at 1000 mg/kg, po measured for 14 days; assay type: organism-based; conditions: in vivo, 336 h, time 14 day
# [29] = Acute toxicity in C57BL/6 mouse assessed as lung damage at 1000 mg/kg, po measured for 14 days; assay type: organism-based; conditions: in vivo, 336 h, time 14 day
# Mus musculus [30] = assay: Anti-inflammatory activity against DSS-induced acute colitis C57BL/6J mouse model assessed as reduction in IL-6 level in colon at 10 to 20 mg/kg, po measured for 7 days by ELISA analysis; assay type: functional, organism-based; conditions: dose 10-20 mg/kg, time 7.0 day
# Mus musculus [31] = assay: Anti-inflammatory activity against DSS-induced acute colitis C57BL/6J mouse model assessed as disappearance of crypt foci in colon at 10 to 20 mg/kg, po measured for 7 days; assay type: functional, organism-based; conditions: dose 10-20 mg/kg, time 7.0 day
# [32] = Acute toxicity in C57BL/6 mouse assessed as spleen damage at 1000 mg/kg, po measured for 14 days; assay type: organism-based; conditions: in vivo, 336 h, time 14 day
# Mus musculus [33] = assay: Anti-inflammatory activity against DSS-induced acute colitis C57BL/6J mouse model assessed as decrease in goblet cells in colon at 10 to 20 mg/kg, po measured for 7 days; assay type: functional, organism-based; conditions: dose 10-20 mg/kg, time 7.0 day
# [34] = Acute toxicity in male C57BL/6 mouse assessed as hyperactivity at 1000 to 2000 mg/kg, po measured for 14 days; assay type: organism-based; conditions: in vivo, 336 h, dose 1000-2000 mg/kg, time 14 day
# Mus musculus [35] = assay: Anti-inflammatory activity against DSS-induced acute colitis C57BL/6J mouse model assessed as decrease in neutrophil infiltration in colon at 10 to 20 mg/kg, po measured for 7 days; assay type: functional, organism-based; conditions: dose 10-20 mg/kg, time 7.0 day
structure (smiles),measurement,setting,value
C=CCOc1ccc(/C=C/c2cc(OC)cc(OC)c2-c2cnnn2C(=O)NCCCl)cc1,Activity,RAW264.7 [1],Dose-Dependent Effect
same,Activity,RAW264.7 [2],Active
same,IC50,RAW264.7 [3],600 nM
same,Activity,[4],Non-Toxic
same,Activity,RAW264.7 [5],Dose-Dependent Effect
same,Activity,RAW264.7 [6],Active
same,Activity,Mus musculus [7],Active
same,Activity,[8],Toxic
same,Activity,RAW264.7 [9],Active
same,Activity,RAW264.7 [10],Active
same,Activity,[11],Non-Toxic
same,Activity,[12],Non-Toxic
same,Activity,[13],Non-Toxic
same,Activity,RAW264.7 [14],Active
same,IC50 at 24 h,[15],> 50000 nM
same,Activity,Mus musculus [16],Active
same,Activity,[17],Non-Toxic
same,Activity,[18],Non-Toxic
same,Activity,[19],Non-Toxic
same,Activity,Mus musculus [20],Active
same,Activity,[21],Non-Toxic
same,Activity,RAW264.7 [22],Dose-Dependent Effect
same,Activity,[23],Non-Toxic
same,Activity,[24],Non-Toxic
same,Activity,Mus musculus [25],Active
same,Activity,Mus musculus [26],Active
same,Activity,[27],Non-Toxic
same,Activity,[28],Non-Toxic
same,Activity,[29],Non-Toxic
same,Activity,Mus musculus [30],Active
same,Activity,Mus musculus [31],Active
same,Activity,[32],Non-Toxic
same,Activity,Mus musculus [33],Active
same,Activity,[34],Non-Toxic
same,Activity,Mus musculus [35],Active
